Converted amounts (≈) assume the structure as drawn. The source made the active and inactive calls. The rule behind the calls is not given here.
Tests used:
Morganella morganii = assay: Antibacterial activity against Morganella morganii by CLSI M7-A7 method; assay type: functional
[1] = system: Streptococcus constellatus; assay: Antibacterial activity against Streptococcus constellatus assessed as percent susceptible isolates by CLSI M100-S18 method; assay type: functional
[2] = system: Staphylococcus saprophyticus; assay: Antibacterial activity against Staphylococcus saprophyticus by CLSI M100-S18 method; assay type: functional
Streptococcus sanguinis = assay: Antibacterial activity against Streptococcus sanguinis assessed as percent susceptible isolates by CLSI M100-S18 method; assay type: functional
Citrobacter freundii = assay: Antibacterial activity against Citrobacter freundii by CLSI M7-A7 method; assay type: functional
Streptococcus salivarius = assay: Antibacterial activity against Streptococcus salivarius assessed as percent susceptible isolates by CLSI M100-S18 method; assay type: functional
[3] = system: Acinetobacter calcoaceticus; assay: Antibacterial activity against Acinetobacter calcoaceticus by CLSI M7-A7 method; assay type: functional
Streptococcus anginosus [4] = assay: Antibacterial activity against Streptococcus anginosus assessed as percent susceptible isolates by CLSI M100-S18 method; assay type: functional
Streptococcus equinus = assay: Antibacterial activity against Streptococcus bovis assessed as percent susceptible isolates by CLSI M100-S18 method; assay type: functional
[5] = Antibacterial activity against Lancefield Streptococcus sp. 'group G' by CLSI M100-S18 method; assay type: functional
Klebsiella pneumoniae = assay: Antibacterial activity against Klebsiella pneumoniae assessed as percent susceptible isolates by CLSI M7-A7 method; assay type: functional
Neisseria meningitidis = assay: Antibacterial activity against Neisseria meningitidis by CLSI M7-A7 method; assay type: functional
[6] = system: Streptococcus constellatus; assay: Antibacterial activity against Streptococcus constellatus by CLSI M100-S18 method; assay type: functional
Streptococcus oralis = assay: Antibacterial activity against Streptococcus oralis assessed as percent susceptible isolates by CLSI M100-S18 method; assay type: functional
[7] = system: Streptococcus intermedius; assay: Antibacterial activity against Streptococcus intermedius assessed as percent susceptible isolates by CLSI M100-S18 method; assay type: functional
Streptococcus pneumoniae [8] = assay: Antibacterial activity against non-levofloxacin susceptible Streptococcus pneumoniae assessed as percent susceptible isolates by CLSI M100-S18 method; assay type: functional
Streptococcus anginosus [9] = assay: Antibacterial activity against Streptococcus anginosus by CLSI M100-S18 method; assay type: functional
Proteus vulgaris = assay: Antibacterial activity against Proteus vulgaris assessed as percent susceptible isolates by CLSI M7-A7 method; assay type: functional
[10] = system: Staphylococcus epidermidis
Enterobacter cloacae = assay: Antibacterial activity against Enterobacter cloacae assessed as percent susceptible isolates by CLSI M7-A7 method; assay type: functional
Bacteroides fragilis = assay: Antibacterial activity against Bacteroides fragilis by CLSI M11-A7 method; assay type: functional
[11] = system: Staphylococcus epidermidis; remark: listed apart in the source
Klebsiella aerogenes [12] = assay: Antibacterial activity against Enterobacter aerogenes assessed as percent susceptible isolates by CLSI M7-A7 method; assay type: functional
Staphylococcus hominis = assay: Antibacterial activity against Staphylococcus hominis by CLSI M100-S18 method; assay type: functional
Acinetobacter baumannii = assay: Antibacterial activity against Acinetobacter baumannii by CLSI M7-A7 method; assay type: functional
Klebsiella aerogenes [13] = assay: Antibacterial activity against Enterobacter aerogenes by CLSI M7-A7 method; assay type: functional
Pseudomonas aeruginosa = assay: Antibacterial activity against non-ciprofloxacin-susceptible Pseudomonas aeruginosa by CLSI M7-A7 method; assay type: functional
Streptococcus mitis [14] = assay: Antibacterial activity against Streptococcus mitis assessed as percent susceptible isolates by CLSI M100-S18 method; assay type: functional
Streptococcus pneumoniae [15] = assay: Antibacterial activity against levofloxacin susceptible Streptococcus pneumoniae assessed as percent susceptible isolates by CLSI M100-S18 method; assay type: functional
[16] = system: Staphylococcus haemolyticus; assay: Antibacterial activity against Staphylococcus haemolyticus assessed as percent susceptible isolates by CLSI M100-S18 method; assay type: functional
Streptococcus mitis [17] = assay: Antibacterial activity against Streptococcus mitis by CLSI M100-S18 method; assay type: functional
[18] = system: Staphylococcus epidermidis; assay: Antibacterial activity against non-ciprofloxacin-susceptible and methicillin-susceptible Staphylococcus epidermidis by CLSI M100-S18 method; assay type: functional
Peptostreptococcus sp. = assay: Antibacterial activity against Peptostreptococcus sp. by CLSI M11-A7 method; assay type: functional
Listeria monocytogenes = assay: Antibacterial activity against Listeria monocytogenes by CLSI M100-S18 method; assay type: functional
Haemophilus influenzae = assay: Antibacterial activity against ciprofloxacin-susceptible Haemophilus influenzae assessed as percent susceptible isolates by CLSI M7-A7 method; assay type: functional

What does the source list for `N[C@@H]1CCCCN(c2c(F)cc3c(=O)c(C(=O)O)cn(C4CC4)c3c2Cl)C1` [BESIFLOXACIN]?
MIC50 (Morganella morganii): 0.12 µg/mL (≈ 0.305 µM); MIC90 (Morganella morganii): 4 µg/mL (≈ 10.2 µM); Activity [1]: 0.06%; MIC50 [2]: 0.06 µg/mL (≈ 0.152 µM); MIC90 [2]: 0.12 µg/mL (≈ 0.305 µM); Activity (Streptococcus sanguinis): 0.06%; MIC50 (Citrobacter freundii): 0.25 µg/mL (≈ 0.635 µM); MIC90 (Citrobacter freundii): 4 µg/mL (≈ 10.2 µM); Activity (Streptococcus salivarius): 0.06%; MIC50 [3]: 0.5 µg/mL (≈ 1.27 µM); MIC90 [3]: 16 µg/mL (≈ 40.6 µM); Activity (Streptococcus anginosus [4]): 0.06%; Activity (Streptococcus equinus): 0.06%; MIC50 [5]: 0.03 µg/mL (≈ 0.0762 µM); MIC90 [5]: 0.06 µg/mL (≈ 0.152 µM); Activity (Klebsiella pneumoniae): inactive; MIC50 (Neisseria meningitidis): 0.008 µg/mL (≈ 0.0203 µM); MIC90 (Neisseria meningitidis): 0.015 µg/mL (≈ 0.0381 µM); MIC50 [6]: 0.06 µg/mL (≈ 0.152 µM); MIC90 [6]: 0.12 µg/mL (≈ 0.305 µM); Activity (Clostridium perfringens): inactive; Activity (Streptococcus oralis): 0.06%; Activity [7]: 0.06%; Activity (Streptococcus pneumoniae [8]): inactive; MIC50 (Streptococcus anginosus [9]): 0.06 µg/mL (≈ 0.152 µM); MIC90 (Streptococcus anginosus [9]): 0.12 µg/mL (≈ 0.305 µM); Activity (Proteus vulgaris): inactive; MIC90 [10]: inactive; Activity (Enterobacter cloacae): inactive; MIC50 (Bacteroides fragilis): 0.5 µg/mL (≈ 1.27 µM); MIC90 (Bacteroides fragilis): 1 µg/mL (≈ 2.54 µM); MIC90 [11]: inactive; Activity (Klebsiella aerogenes [12]): inactive; MIC50 (Staphylococcus hominis): 0.25 µg/mL (≈ 0.635 µM); MIC90 (Staphylococcus hominis): 1 µg/mL (≈ 2.54 µM); MIC50 (Acinetobacter baumannii): 16 µg/mL (≈ 40.6 µM); MIC90 (Acinetobacter baumannii): 32 µg/mL (≈ 81.3 µM); MIC50 (Klebsiella aerogenes [13]): 0.25 µg/mL (≈ 0.635 µM); MIC90 (Klebsiella aerogenes [13]): 8 µg/mL (≈ 20.3 µM); MIC50 (Pseudomonas aeruginosa): 16 µg/mL (≈ 40.6 µM); MIC90 (Pseudomonas aeruginosa): 64 µg/mL (≈ 163 µM); Activity (Streptococcus mitis [14]): 0.06%; Activity (Streptococcus pneumoniae [15]): inactive; Activity [16]: inactive; MIC50 (Streptococcus mitis [17]): 0.06 µg/mL (≈ 0.152 µM); MIC90 (Streptococcus mitis [17]): 0.12 µg/mL (≈ 0.305 µM); MIC [18]: 0.25 µg/mL (≈ 0.635 µM); MIC50 [18]: 0.25 µg/mL (≈ 0.635 µM); MIC50 (Peptostreptococcus sp.): 0.25 µg/mL (≈ 0.635 µM); MIC90 (Peptostreptococcus sp.): 0.5 µg/mL (≈ 1.27 µM); MIC50 (Listeria monocytogenes): 0.12 µg/mL (≈ 0.305 µM); MIC90 (Listeria monocytogenes): 0.12 µg/mL (≈ 0.305 µM); Activity (Haemophilus influenzae): inactive
